Results published in PubChem BioAssay AID608 (Sanford-Burnham Center for Chemical Genomics, 2007).
Activity calls are given as the source filed them. The rule behind the calls is not given here.

target: Peptidyl-prolyl cis-trans isomerase FKBP1A (Homo sapiens) (UniProt P62942); assay: FKBP12 binders, biophysical, NMR detection (AID 608); conditions: NMR binding, purified FKBP12
Sequence (P62942 whole entry, looked up): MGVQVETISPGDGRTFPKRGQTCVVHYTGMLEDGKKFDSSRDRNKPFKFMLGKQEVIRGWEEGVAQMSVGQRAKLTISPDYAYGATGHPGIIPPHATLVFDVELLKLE

| Structure (SMILES) | Kd |
| --- | --- |
| O=C(O)CCCCC1SCC2NC(=O)NC21 (stereo not given) | > 4 mM (inactive) |
| O=C(O)C1COc2ccccc2C1 (stereo not given) | > 4 mM (inactive) |
| COC(=O)[C@@H]1OC(=O)C2OC23[C@@]1(C)CCC1[C@]2(C)C(C[C@H](O)[C@]13C)C(C)(C)[C@H](OC(C)=O)C[C@@H]2OC(C)=O (stereo not given in full) | > 4 mM (inactive) |
| S=c1oc(-c2ccncc2)nn1CCc1ccncc1 | inactive |
| O=C(CSc1ccccc1)N1CCOCC1 | 0.0235 mM |
| Cc1nnc(SCC(=O)N2CCc3ccccc32)s1 | > 4 mM (inactive) |
| COc1cccc(NC(=O)c2ocnc2C)c1 | > 4 mM (inactive) |
| O=C(NS(=O)(=O)c1ccccc1)c1ccccc1F | > 4 mM (inactive) |
| NC(=O)NCCCC(N)C(=O)O (stereo not given) | > 4 mM (inactive) |
| O=C(O)C1(S(=O)(=O)c2ccccc2)CC1 | > 4 mM (inactive) |
| NC1=NC(=O)/C(=C\c2cccnc2)S1 | > 4 mM (inactive) |
| OCc1ccc2occc2c1 | > 4 mM (inactive) |
| Nc1ccncc1 | > 4 mM (inactive) |
| CN(C)C(=O)c1ccccc1-c1ccccc1 | > 4 mM (inactive) |
| CC(=O)NC1(NC(C)=O)CCN(C)CC1 | > 4 mM (inactive) |
| OC(CCl)c1ccc(-n2cncn2)cc1 (stereo not given) | > 4 mM (inactive) |
| O=C(O)C1CSC(c2cccnc2)N1 (stereo not given) | > 4 mM (inactive) |
| N[C@@H](Cc1cc(I)c(Oc2cc(I)c(O)c(I)c2)c(I)c1)C(=O)O | > 4 mM (inactive) |
| C=C(C)CSc1nc2nc(C)cc(C)n2n1 | > 4 mM (inactive) |
| Cc1ccc(C(=O)Nn2cnnc2)c(Cl)c1 | > 4 mM (inactive) |

| Structure (SMILES) | Kd |
| --- | --- |
| O=C(c1ccc(Cl)s1)N1CCOCC1 | > 4 mM (inactive) |
| Cn1cnc2ccc([N+](=O)[O-])cc2c1=O | > 4 mM (inactive) |
| O=c1ccc2ccc(O)cc2o1 | > 4 mM (inactive) |
| NS(=O)(=O)c1ccc(NC(=O)c2ccccc2F)cc1 | > 4 mM (inactive) |
| Cc1nc2ccccc2c(=O)n1CCCO | > 4 mM (inactive) |
| CN=C1SC(CC(=O)Nc2ccc(O)cc2)C(=O)N1C (stereo not given) | > 4 mM (inactive) |
| CSc1ccccc1C(=O)N1CCOCC1 | > 4 mM (inactive) |
| Cc1nc(SCC(=O)c2c[nH]c3ccccc23)n[nH]1 | inactive |
| CC(=O)O[C@H]1CC[C@@]2(C)C(CC[C@]3(C)C2C(=O)C=C2C4[C@@H](C)[C@H](C)CC[C@]4(C(=O)O)CC[C@]23C)C1(C)C (stereo not given in full) | > 4 mM (inactive) |
| O=C(/C=C/c1ccc(O)cc1)c1ccc(O)cc1O | > 4 mM (inactive) |
| O=C(O)c1cccc2c1OCCCO2 | > 4 mM (inactive) |
| CC(C)NC(=O)c1cc(-n2cnnc2)ccc1Cl | > 4 mM (inactive) |
| O=C(O)c1ccc(N2CCOCC2)cc1 | > 4 mM (inactive) |
| Cn1cccc1C(=S)N1CCOCC1 | > 4 mM (inactive) |
| CC(=O)c1ccc(Cc2cnc(N)s2)cc1 | > 4 mM (inactive) |
| O=C(O)C1C(=O)NCC1c1ccccc1 (stereo not given) | > 4 mM (inactive) |
| NC1=NCc2ccccc21 | > 4 mM (inactive) |
| O=C1CC(c2ccccc2)n2ncnc2N1 (stereo not given) | > 4 mM (inactive) |
| Nc1cccc(CC(=S)N2CCOCC2)c1 | > 4 mM (inactive) |
| O=C(O)Cn1cnc2ccccc2c1=O | > 4 mM (inactive) |

| Structure (SMILES) | Kd |
| --- | --- |
| OCc1ccc(N2CCOCC2)nc1 | > 4 mM (inactive) |
| O=c1[nH]cc(S(=O)(=O)Nc2ccccc2)c(=O)[nH]1 | > 4 mM (inactive) |
| CC(=O)NC(C)C12CC3CC(CC(C(=O)O)(C3)C1)C2 (stereo not given) | > 4 mM (inactive) |
| CNC(=S)N1CCN=C1Nc1nc(C)cc(C)n1 | > 4 mM (inactive) |
| COc1c(O)cccc1O | > 4 mM (inactive) |
| CCCN1CCC(N2CCC(O)CC2)CC1 | > 4 mM (inactive) |
| COc1c2c(cc3cc[n+](C)cc13)OCO2 | > 4 mM (inactive) |
| NC(=O)CSc1nc2ncnc(N)c2[nH]1 | > 4 mM (inactive) |
| Cc1cc(C)c(OCC(=O)N2CCOCC2)c(C)c1 | inactive |
| OCc1cccs1 | > 4 mM (inactive) |
| O=C(O)CC1C(=O)NCCN1Cc1cccs1 (stereo not given) | > 4 mM (inactive) |
| CC1(C)C=CC(=O)[C@@]2(C)C1CC(=O)[C@]1(C)C2CC[C@@]2(C)[C@H](c3ccoc3)OC(=O)C3OC321 (stereo not given in full) | > 4 mM (inactive) |
| CCn1c(C)c(C(C)=O)c(N2CCN(C)CC2)nc1=S | > 4 mM (inactive) |
| CCP(=O)(CC)c1cccc(C)c1 | > 4 mM (inactive) |
| Cn1cnc2c(=O)[nH]cc([N+](=O)[O-])c21 | > 4 mM (inactive) |
| Cc1c(-c2ccc(F)cc2)[n+](=O)c2c(n1[O-])CCC2 | > 4 mM (inactive) |
| CCOC(=O)c1sc(SC)c2c1CCCC2O (stereo not given) | > 4 mM (inactive) |
| O=C1NC(=S)N/C1=C\c1cccc([N+](=O)[O-])c1 | > 4 mM (inactive) |
| O=C(C1CCCCC1)N1CCN(c2ccccc2F)CC1 | > 4 mM (inactive) |
| O=c1nc(N2CCCCC2)nc2n1CCO2 | > 4 mM (inactive) |
